As a reminder, the melting point is the temperature, or range, at which the solid turns liquid.

The values that follow come from US11180487B2, “Substituted cyanoindoline derivatives as NIK inhibitors” (Janssen Pharmaceutica NV, priority 2016, dated 2021).

The structures appear in SMILES notation. Like-named read-outs stand apart in the source and are kept apart here.

The target in data set [1] is recombinant human NF-kappaB-inducing kinase (NIK/MAP3K14) (Homo sapiens, UniProt Q99558). Briefly: Inhibition of auto-phosphorylation of recombinant human NIK/MAP3K14 activity (AlphaScreen), Biological Assay A. The data set is classed as biochemical. Particulars: averaged values over all measurements on all batches. The procedure, abridged: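 AlphaScreen detection with anti-phospho-IKK Ser176/180 antibody plus Protein A acceptor/glutathione donor beads after 1 h, 25 °C reaction of 0.2 nM GST-tagged kinase, 25 μM ATP and compound. Buffer: 50 mM Tris pH 7.5, MgCl2, EGTA, DTT, vanadate; 1% DMSO. IC50 fitted sigmoidally to % inhibition.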

Data set [2] deals with P-IKKα levels in L363 (NIK translocated multiple myeloma) cells. Briefly: Effect of compounds on P-IKKα levels in L363 cells (Mesoscale sandwich immuno-assay), Biological Assay B. The data set is classed as cell-based, human. As to conditions: 2 hr treatment, averaged values, read-out: Inhibition of pIKKα_L-363 (IC50 (nM)). On the procedure:
Effect of Compounds on P-IKKα Levels in L363 (NIK Translocated Multiple Myeloma) Cells
All compounds tested were dissolved in DMSO and further dilutions were made in culture medium. Final DMSO concentration was 1% (v/v) in cell assays. The human L363 cells (ATCC) were cultured in RPMI 1640 medium supplemented with GlutaMax and 10% fetal calf serum (PAA). Cells were routinely maintained at densities of 0.2×10^6 cells per ml-1×10^6 cells per ml at 37° C. in a humidified 5% CO2 atmosphere. Cells were passaged twice a week splitting back to obtain the low density. Cells were seeded in 96 well plates (Nunc 167008) at 2×10^6 per ml media in a volume of 75 μl per well plus 25 μl 1 μg/ml recombinant human B-cell activating factor (BAFF/BLyS/TNFSF13B). Seeded cells were incubated at 37° C. in a humidified 5% CO2 atmosphere for 24 hr. Drugs and/or solvents were added (20 μl) to a final volume of 120 μl. Following 2 hr treatment plates were removed from the incubator and cell lysis was achieved by the addition of 30 μl 5× lysis buffer followed by shaking on a plate shaker at 4° C. for 10 min. At the end of this incubation lysed cells were centrifuged at 800×g for 20 min at 4° C. and the lysate was assessed for P-IKKα levels by sandwich immuno-assay carried out in anti-rabbit antibody coated Mesoscale plates. Within an experiment, the results for each treatment were the mean of 2 replicate wells. For initial screening purposes, compounds were tested using an 8 point dilution curve (serial 1:3 dilutions). For each experiment, controls (containing MG132 and BAFF but no test drug) and a blank incubation (containing MG132 and BAFF and 10 μM ADS125117, a test concentration known to give full inhibition) were run in parallel. The blank incubation value was subtracted from all control and sample values. To determine the IC50 a sigmoidal curve was fitted to the plot of % inhibition of control P-IKKα levels versus Log10 compound concentration.
Note: Compounds 237 and 238 were tested at a maximum top concentration of 823 nM.

Data set [3] has as its system JJN-3 (NIK translocated) multiple myeloma cells. Briefly: Antiproliferative activity on JJN-3 multiple myeloma cells (CellTiter-Glo, 96 hr), Biological Assay C. The data set is classed as cell-based, human. As to conditions: JJN-3 (NIK translocated) cells, averaged values, read-out: JJN-3 Proliferation inhibition (IC50 (nM)). The procedure, abridged: (§1)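 Growth read-out was CellTiter-Glo luminescence after 96 h compound exposure, given as percent of no-drug control after subtracting a blank of cells read at dosing. Compounds ran as 9-point serial 1:3 dilutions in 0.3% DMSO, duplicate wells, on JJN-3 (15000/well) or KMS12-BM (20000/well) cells in RPMI 1640/10% FCS.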
(In ATP-based viability assays light output follows the ATP content of the culture.)

Data set [4] relates to KMS12-BM (NIK WT) multiple myeloma cells. The data set can be described thus: Antiproliferative activity on KMS12-BM multiple myeloma cells (CellTiter-Glo, 96 hr), Biological Assay C. As to conditions: averaged values, read-out: KMS-12 Proliferation inhibition (IC50 (nM)). It counts as cell-based, human. An outline of the steps: as §1

recombinant human NF-kappaB-inducing kinase (NIK/MAP3K14), sequence (Q99558 whole entry): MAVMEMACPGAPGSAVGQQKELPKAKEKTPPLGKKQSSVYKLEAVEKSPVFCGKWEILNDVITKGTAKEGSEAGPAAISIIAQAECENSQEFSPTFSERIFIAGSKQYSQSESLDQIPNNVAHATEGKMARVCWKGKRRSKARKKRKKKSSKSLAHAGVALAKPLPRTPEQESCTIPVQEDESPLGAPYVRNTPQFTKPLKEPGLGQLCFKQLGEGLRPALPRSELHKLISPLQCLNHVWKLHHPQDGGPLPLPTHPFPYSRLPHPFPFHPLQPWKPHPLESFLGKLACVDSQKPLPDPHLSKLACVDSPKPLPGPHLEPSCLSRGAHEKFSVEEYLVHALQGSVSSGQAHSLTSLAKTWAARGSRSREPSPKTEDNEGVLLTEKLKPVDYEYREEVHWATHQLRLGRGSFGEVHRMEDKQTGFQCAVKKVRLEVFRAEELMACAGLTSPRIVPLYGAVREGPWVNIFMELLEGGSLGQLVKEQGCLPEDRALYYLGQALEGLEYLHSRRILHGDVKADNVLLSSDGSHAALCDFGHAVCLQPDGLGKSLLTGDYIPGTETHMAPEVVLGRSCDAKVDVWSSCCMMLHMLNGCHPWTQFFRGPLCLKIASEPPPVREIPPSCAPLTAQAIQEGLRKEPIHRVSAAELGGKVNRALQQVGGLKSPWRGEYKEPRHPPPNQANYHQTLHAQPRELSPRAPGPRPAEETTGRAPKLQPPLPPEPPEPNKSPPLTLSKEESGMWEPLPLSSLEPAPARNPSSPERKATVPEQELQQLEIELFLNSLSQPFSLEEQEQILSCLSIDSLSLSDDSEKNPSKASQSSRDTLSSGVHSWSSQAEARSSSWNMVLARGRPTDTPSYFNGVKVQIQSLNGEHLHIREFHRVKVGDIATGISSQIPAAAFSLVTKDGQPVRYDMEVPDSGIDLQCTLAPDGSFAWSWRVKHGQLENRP

As to `COCCOc1ccc(P(C)(C)=O)cc1Nc1nccc(-c2cc(C#N)c3c(c2)[C@@](C)(CO)CN3)n1` [Compound 5], the melting point stood at 115 °C. The IC50 in data set [1] was determined as 2510 nM. In data set [2] (Homo sapiens, L-363, 2 h), the IC50 is more than 10000 nM.
Consider `C[C@]1(CO)CNc2c(C#N)cc(-c3ccnc(Nc4cc(P(C)(C)=O)ccc4OCC4CC4)n3)cc21` [Compound 6], for which the melting point stood at 148 °C. Also, the IC50 in data set [1] amounted to 447 nM. In data set [2] (Homo sapiens, L-363, 2 h), the IC50 was more than 10000 nM.
The matching figures for `Cc1ccc(C#N)cc1Nc1nccc(-c2cc(C#N)c3c(c2)[C@@](C)(C(C)(C)O)CN3)n1` [Compound 135]: 166 °C, 58.9 nM and 4370 nM.
The corresponding values for `Cc1ccc(C(C)(C)O)cc1Nc1nccc(-c2cc(C#N)c3c(c2)[C@@](C)(CO)CN3)n1` [Compound 151] are 122 °C, 22.4 nM and 427 nM.
Take `Cc1cc(F)c(CO)cc1Nc1nccc(-c2cc(C#N)c3c(c2)[C@@](C)(CO)CN3)n1` [Compound 152]: the IC50 in data set [1] is 2.3 nM; in data set [2] (Homo sapiens, L-363, 2 h), 7.8 nM; in data set [3] (Homo sapiens, JJN-3, 96 h), 272 nM; in data set [4] (Homo sapiens, KMS-12-BM, 96 h) it was more than 10000 nM.
The corresponding values for `C[C@]1(CO)CNc2c(C#N)cc(-c3ccnc(Nc4cc(C#N)ccc4CO)n3)cc21` [Compound 153] are 1.3 nM, 6.3 nM, 240 nM and more than 10000 nM.
The matching figures for `CC(C)Oc1ccc(CO)cc1Nc1nccc(-c2cc(C#N)c3c(c2)[C@@](C)(CO)CN3)n1` [Compound 154]: 1.4 nM, 6.6 nM, 141 nM and more than 10000 nM.
The corresponding values for `Cc1ccc(C(=O)NCCN2CCCC2)cc1Nc1nccc(-c2cc(C#N)c3c(c2)[C@@](C)(CO)CN3)n1` [Compound 158] are 5.4 nM, 91.2 nM, 1230 nM and more than 10000 nM.
Consider `Cc1ccc(C(=O)N2CCN(C)CC2)cc1Nc1nccc(-c2cc(C#N)c3c(c2)[C@@](C)(CO)CN3)n1` [Compound 161], for which the melting point stood at 245 °C. The IC50 in data set [1] turned out to be 20.4 nM. Further, in data set [2] (Homo sapiens, L-363, 2 h), the IC50 was 407 nM.
For the compound `CNC(=O)c1ccc(OC(C)C)c(Nc2nccc(-c3cc(C#N)c4c(c3)[C@@](C)(CO)CN4)n2)c1` [Compound 162], the IC50 was 5.5 nM in data set [1]; 19.5 nM in data set [2] (Homo sapiens, L-363, 2 h); 288 nM in data set [3] (Homo sapiens, JJN-3, 96 h); more than 10000 nM in data set [4] (Homo sapiens, KMS-12-BM, 96 h).
`Cc1ccc(C#N)cc1Nc1nccc(-c2cc(C#N)c3c(c2)[C@@](C)(CF)CN3)n1` [Compound 164] registered a melting point of 194 °C. Moreover, in data set [1], the IC50 turned out to be 26.9 nM. The IC50 in data set [2] (Homo sapiens, L-363, 2 h) came to 288 nM.
Regarding `Cc1cc(CCN2CCOCC2)c(C#N)cc1Nc1nccc(-c2cc(C#N)c3c(c2)[C@@](C)(CO)CN3)n1` [Compound 173], the IC50 was 1.8 nM in data set [1]; 1.3 nM in data set [2] (Homo sapiens, L-363, 2 h); 29 nM in data set [3] (Homo sapiens, JJN-3, 96 h); more than 10000 nM in data set [4] (Homo sapiens, KMS-12-BM, 96 h).
The matching figures for `CCC(=O)NCC#Cc1cc(C)c(Nc2nccc(-c3cc(C#N)c4c(c3)[C@@](C)(CO)CN4)n2)cc1C#N` [Compound 176]: 3.8 nM, 5.9 nM, 91 nM and more than 10000 nM.
In turn, `C[C@]1(CO)CNc2c(C#N)cc(-c3ccnc(Nc4cc(C#N)ccc4OCCCN)n3)cc21` [Compound 180] showed a melting point of 194 °C. For the same compound, the IC50 in data set [1] turned out to be 3.7 nM. Also, in data set [2] (Homo sapiens, L-363, 2 h), the IC50 was 44.7 nM.
As to `CC(=O)NCCCOc1ccc(C#N)cc1Nc1nccc(-c2cc(C#N)c3c(c2)[C@@](C)(CO)CN3)n1` [Compound 181], the IC50 is 5.1 nM in data set [1]; 7.8 nM in data set [2] (Homo sapiens, L-363, 2 h); 195 nM in data set [3] (Homo sapiens, JJN-3, 96 h); more than 10000 nM in data set [4] (Homo sapiens, KMS-12-BM, 96 h).
With `CC(=O)NCCCCc1ccc(C#N)cc1Nc1nccc(-c2cc(C#N)c3c(c2)[C@@](C)(CO)CN3)n1` [Compound 185], the melting point came out at 156 °C. Also, the IC50 in data set [1] was determined as 6.5 nM. Besides, the IC50 in data set [2] (Homo sapiens, L-363, 2 h) is 6.6 nM.
The matching figures for `Cc1ccc(-c2cncn2C)cc1Nc1nccc(-c2cc(C#N)c3c(c2)[C@@](C)(CO)CN3)n1` [Compound 189]: 239 °C, 30.9 nM and 1620 nM.
The corresponding values for `Cc1ccc(-c2ccnn2C)cc1Nc1nccc(-c2cc(C#N)c3c(c2)[C@@](C)(CO)CN3)n1` [Compound 190] are 128 °C, 34.7 nM and 2630 nM.
The compound `Cc1ccc(-c2ncc[nH]2)cc1Nc1nccc(-c2cc(C#N)c3c(c2)[C@@](C)(CO)CN3)n1.Cl` [Compound 191] came in with a melting point of 122 °C. In data set [1], the IC50 was found to be 13.8 nM. Moreover, the IC50 in data set [2] (Homo sapiens, L-363, 2 h) was 4070 nM.
The matching figures for `Cc1c(Nc2nccc(-c3cc(C#N)c4c(c3)[C@@](C)(CO)CN4)n2)cc(C#N)cc1C(=O)O` [Compound 201]: 220 °C, 2.8 nM and approximately 1200 nM.
The corresponding values for `CC(=O)NC[C@@]1(C)CNc2c(C#N)cc(-c3ccnc(Nc4cc(C#N)ccc4C)n3)cc21` [Compound 211] are 160 °C, 16.2 nM and 3160 nM.
The matching figures for `Cc1ccc(C#N)cc1Nc1nccc(-c2cc(C#N)c3c(c2)[C@@](C)(CNS(C)(=O)=O)CN3)n1` [Compound 212]: 168 °C, 25.1 nM and approximately 4470 nM.
`Cc1ccc(CO)cc1Nc1nccc(-c2cc(C#N)c3c(c2)C(C)(CO)CN3)n1` (stereo not shown) [Compound 215]: the IC50 was 1.5 nM in data set [1]; 2.9 nM in data set [2] (Homo sapiens, L-363, 2 h); 199 nM in data set [3] (Homo sapiens, JJN-3, 96 h); more than 10000 nM in data set [4] (Homo sapiens, KMS-12-BM, 96 h).
`Cc1ccc(CN2CCCC2)cc1Nc1nccc(-c2cc(C#N)c3c(c2)[C@@](C)(CO)CN3)n1` [Compound 216] came in with a melting point of 108 °C. Besides, the IC50 in data set [1] was found to be 49 nM. In data set [2] (Homo sapiens, L-363, 2 h), the IC50 is 144 nM.
The corresponding values for `Cc1ccc(CNC2CC2)cc1Nc1nccc(-c2cc(C#N)c3c(c2)[C@@](C)(CO)CN3)n1` [Compound 218] are 115 °C, 3.6 nM and approximately 1230 nM.
For `CN1CCC(Oc2ccc(C#N)cc2Nc2nccc(-c3cc(C#N)c4c(c3)[C@@](C)(CO)CN4)n2)C(F)C1` (stereo partly shown) [Compound 230], the IC50 is 6.3 nM in data set [1]; 7.7 nM in data set [2] (Homo sapiens, L-363, 2 h); 46 nM in data set [3] (Homo sapiens, JJN-3, 96 h); more than 10000 nM in data set [4] (Homo sapiens, KMS-12-BM, 96 h).
For the compound `CN1CCC(Oc2ccc(C#N)cc2Nc2nccc(-c3cc(C#N)c4c(c3)[C@@](C)(CO)CN4)n2)C(F)C1` (stereo partly shown) [Compound 231], the IC50 was 7.8 nM in data set [1], 12.3 nM in data set [2], 89 nM in data set [3] and more than 10000 nM in data set [4].
Turning to `CN1CC(F)C(Oc2ccc(C#N)cc2Nc2nccc(-c3cc(C#N)c4c(c3)[C@@](C)(CO)CN4)n2)C1` (stereo partly shown) [Compound 232], the IC50 was 5.5 nM in data set [1]; 11.5 nM in data set [2] (Homo sapiens, L-363, 2 h); 282 nM in data set [3]; more than 10000 nM in data set [4] (Homo sapiens, KMS-12-BM, 96 h).
Take `CN1CC(F)C(Oc2ccc(C#N)cc2Nc2nccc(-c3cc(C#N)c4c(c3)[C@@](C)(CO)CN4)n2)C1` (stereo partly shown) [Compound 233]: the IC50 in data set [1] is 4.6 nM; in data set [2], 21.4 nM; in data set [3] it was 741 nM; in data set [4] it was more than 10000 nM.
